# Experimental data reported in ChEMBL document CHEMBL5137068, “Discovery of Hexahydrofuro[3,2-b]furans as New Kinase-Selective and Orally Bioavailable JAK3 Inhibitors for the Treatment of Leukemia Harboring a JAK3 Activating Mutant” (J Med Chem, 2022).
# Experiments:
# U-937 = assay: cells; settings: Homo sapiens, U-937, 72 h
# BaF3 [1] = assay: cells; settings: Mus musculus, BaF3, 72 h
# BaF3 [2] = assay: cells; settings: Mus musculus, BaF3, 72 h; remark: listed apart in the source
# Description: Antiproliferative activity against mouse BaF3 parent cell measured after 72 hrs by CCK-8 assay
# [3] = molecular target: T1, Tyrosine-protein kinase JAK3 (Homo sapiens, UniProt P52333)
# T1 sequence (P52333 whole entry): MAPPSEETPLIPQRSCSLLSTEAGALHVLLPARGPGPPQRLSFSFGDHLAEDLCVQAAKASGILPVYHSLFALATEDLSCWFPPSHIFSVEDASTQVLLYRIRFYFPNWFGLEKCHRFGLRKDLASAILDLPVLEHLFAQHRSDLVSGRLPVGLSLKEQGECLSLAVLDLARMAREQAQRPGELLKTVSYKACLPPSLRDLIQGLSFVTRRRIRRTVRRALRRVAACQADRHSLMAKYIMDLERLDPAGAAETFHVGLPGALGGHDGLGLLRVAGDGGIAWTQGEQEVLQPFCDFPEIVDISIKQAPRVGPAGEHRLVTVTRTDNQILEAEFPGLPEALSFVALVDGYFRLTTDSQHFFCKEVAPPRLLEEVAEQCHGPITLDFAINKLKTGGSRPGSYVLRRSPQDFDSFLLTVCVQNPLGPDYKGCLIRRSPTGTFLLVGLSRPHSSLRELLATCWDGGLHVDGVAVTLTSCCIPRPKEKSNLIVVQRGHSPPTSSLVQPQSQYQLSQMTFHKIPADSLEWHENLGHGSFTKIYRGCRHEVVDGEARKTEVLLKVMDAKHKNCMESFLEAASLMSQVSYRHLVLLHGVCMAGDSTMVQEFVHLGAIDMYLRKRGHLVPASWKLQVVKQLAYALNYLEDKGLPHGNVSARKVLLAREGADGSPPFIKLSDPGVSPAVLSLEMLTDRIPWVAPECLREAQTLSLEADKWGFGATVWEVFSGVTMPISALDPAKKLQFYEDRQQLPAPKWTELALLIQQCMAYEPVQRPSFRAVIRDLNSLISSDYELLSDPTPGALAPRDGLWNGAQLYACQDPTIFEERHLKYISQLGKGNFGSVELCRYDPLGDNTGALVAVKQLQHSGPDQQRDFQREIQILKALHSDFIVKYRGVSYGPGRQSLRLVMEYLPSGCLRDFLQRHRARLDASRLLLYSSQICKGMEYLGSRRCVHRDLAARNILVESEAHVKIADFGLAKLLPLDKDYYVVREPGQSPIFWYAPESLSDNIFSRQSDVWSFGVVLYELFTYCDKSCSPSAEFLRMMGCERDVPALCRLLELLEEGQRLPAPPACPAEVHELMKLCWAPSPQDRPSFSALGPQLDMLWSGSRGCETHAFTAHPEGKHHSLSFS
# Description: Inhibition of GST tagged recombinant human JAK3 expressed in baculovirus infection system by FRET assay
# BaF3 [4] = assay: cells; settings: Mus musculus, BaF3, 72 h; remark: listed apart in the source
# BaF3 [5] = assay: cells; settings: Mus musculus, BaF3, 72 h; remark: listed apart in the source
# [6] = Cmax in 12 hr fasted SPF Sprague-Dawley rat at 5 mg/kg, iv upon 2 hrs fasting post-administration measured upto 24 hrs; format: ADME, organism-based; parameters: dose 5 mg/kg, time < 24 hrs, route iv; settings: in vivo
# [7] = Cmax in 12 hr fasted SPF Sprague-Dawley rat at 15 mg/kg, po upon 2 hrs fasting post-administration measured upto 24 hrs; format: ADME, organism-based; parameters: time < 24 hrs, dose 15 mg/kg, route po; settings: in vivo
# [8] = Half life in 12 hr fasted SPF Sprague-Dawley rat at 15 mg/kg, po upon 2 hrs fasting post-administration measured upto 24 hrs; format: ADME, organism-based; settings: in vivo
# [9] = Metabolic stability in rat liver microsome assessed as half life preincubated for 5 mins followed by NADPH addition measured upto 45 mins by LC/MS analysis; format: ADME; settings: liver microsomes, time < 50 min
# [10] = AUC(0 to infinity) in 12 hr fasted SPF Sprague-Dawley rat at 15 mg/kg, po upon 2 hrs fasting post-administration upto 24 hrs; format: ADME, organism-based; parameters: dose 15 mg/kg, time < 24 hrs, route po; settings: in vivo
# [11] = AUC(0 to infinity) in 12 hr fasted SPF Sprague-Dawley rat at 5 mg/kg, iv upon 2 hrs fasting post-administration measured upto 24 hrs; format: ADME, organism-based; parameters: dose 5 mg/kg, time < 24 hrs, route iv; settings: in vivo
# [12] = Half life in 12 hr fasted SPF Sprague-Dawley rat at 5 mg/kg, iv upon 2 hrs fasting post-administration measured upto 24 hrs; format: ADME, organism-based; settings: in vivo
# [13] = Clearance in 12 hr fasted SPF Sprague-Dawley rat at 5 mg/kg, iv upon 2 hrs fasting post-administration measured upto 24 hrs; format: ADME, organism-based; settings: in vivo
# [14] = Oral bioavailability in 12 hr fasted SPF Sprague-Dawley rat at 15 mg/kg upon 2 hrs fasting post-administration measured upto 24 hrs; format: ADME, organism-based; settings: in vivo
# [15] = molecular target: Non-receptor tyrosine-protein kinase TYK2 (Homo sapiens, UniProt P29597)
# Description: Inhibition of human TYK2 by FRET assay
# [16] = molecular target: Tyrosine-protein kinase JAK2 (Homo sapiens, UniProt O60674)
# Description: Inhibition of GST tagged recombinant human JAK2 expressed in baculovirus infection system by FRET assay
# [17] = molecular target: Tyrosine-protein kinase JAK1 (Homo sapiens, UniProt P23458)
# Chain of Tyrosine-protein kinase JAK1 (P23458 whole entry): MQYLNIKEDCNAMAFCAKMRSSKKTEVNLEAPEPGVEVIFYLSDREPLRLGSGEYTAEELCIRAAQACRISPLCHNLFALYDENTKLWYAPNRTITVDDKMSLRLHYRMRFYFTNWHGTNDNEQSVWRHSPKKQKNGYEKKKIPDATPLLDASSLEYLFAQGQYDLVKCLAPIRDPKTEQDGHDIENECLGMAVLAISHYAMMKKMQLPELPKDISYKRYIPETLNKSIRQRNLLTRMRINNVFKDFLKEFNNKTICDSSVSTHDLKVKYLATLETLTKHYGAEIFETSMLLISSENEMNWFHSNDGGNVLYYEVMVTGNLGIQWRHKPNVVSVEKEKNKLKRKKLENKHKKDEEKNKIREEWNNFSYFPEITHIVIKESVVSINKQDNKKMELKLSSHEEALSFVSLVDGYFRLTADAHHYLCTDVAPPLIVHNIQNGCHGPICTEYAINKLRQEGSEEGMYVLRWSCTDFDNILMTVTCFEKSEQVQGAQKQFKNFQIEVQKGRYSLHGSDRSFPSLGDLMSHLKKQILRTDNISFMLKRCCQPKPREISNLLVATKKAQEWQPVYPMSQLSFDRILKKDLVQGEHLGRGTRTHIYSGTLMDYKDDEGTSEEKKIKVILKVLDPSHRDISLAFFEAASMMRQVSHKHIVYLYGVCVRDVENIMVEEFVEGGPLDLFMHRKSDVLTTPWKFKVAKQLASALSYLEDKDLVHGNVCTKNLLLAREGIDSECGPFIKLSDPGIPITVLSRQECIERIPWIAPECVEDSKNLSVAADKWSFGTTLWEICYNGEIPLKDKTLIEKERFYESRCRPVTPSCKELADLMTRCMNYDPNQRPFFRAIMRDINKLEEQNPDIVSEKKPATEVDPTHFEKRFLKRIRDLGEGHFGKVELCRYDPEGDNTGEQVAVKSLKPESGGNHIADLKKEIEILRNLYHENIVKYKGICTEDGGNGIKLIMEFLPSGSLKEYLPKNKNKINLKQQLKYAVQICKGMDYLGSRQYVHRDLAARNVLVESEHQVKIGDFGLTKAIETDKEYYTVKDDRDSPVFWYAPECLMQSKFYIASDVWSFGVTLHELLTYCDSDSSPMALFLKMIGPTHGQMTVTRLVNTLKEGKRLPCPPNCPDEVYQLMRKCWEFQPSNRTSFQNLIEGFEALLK
# Chain of Non-receptor tyrosine-protein kinase TYK2 (P29597 whole entry): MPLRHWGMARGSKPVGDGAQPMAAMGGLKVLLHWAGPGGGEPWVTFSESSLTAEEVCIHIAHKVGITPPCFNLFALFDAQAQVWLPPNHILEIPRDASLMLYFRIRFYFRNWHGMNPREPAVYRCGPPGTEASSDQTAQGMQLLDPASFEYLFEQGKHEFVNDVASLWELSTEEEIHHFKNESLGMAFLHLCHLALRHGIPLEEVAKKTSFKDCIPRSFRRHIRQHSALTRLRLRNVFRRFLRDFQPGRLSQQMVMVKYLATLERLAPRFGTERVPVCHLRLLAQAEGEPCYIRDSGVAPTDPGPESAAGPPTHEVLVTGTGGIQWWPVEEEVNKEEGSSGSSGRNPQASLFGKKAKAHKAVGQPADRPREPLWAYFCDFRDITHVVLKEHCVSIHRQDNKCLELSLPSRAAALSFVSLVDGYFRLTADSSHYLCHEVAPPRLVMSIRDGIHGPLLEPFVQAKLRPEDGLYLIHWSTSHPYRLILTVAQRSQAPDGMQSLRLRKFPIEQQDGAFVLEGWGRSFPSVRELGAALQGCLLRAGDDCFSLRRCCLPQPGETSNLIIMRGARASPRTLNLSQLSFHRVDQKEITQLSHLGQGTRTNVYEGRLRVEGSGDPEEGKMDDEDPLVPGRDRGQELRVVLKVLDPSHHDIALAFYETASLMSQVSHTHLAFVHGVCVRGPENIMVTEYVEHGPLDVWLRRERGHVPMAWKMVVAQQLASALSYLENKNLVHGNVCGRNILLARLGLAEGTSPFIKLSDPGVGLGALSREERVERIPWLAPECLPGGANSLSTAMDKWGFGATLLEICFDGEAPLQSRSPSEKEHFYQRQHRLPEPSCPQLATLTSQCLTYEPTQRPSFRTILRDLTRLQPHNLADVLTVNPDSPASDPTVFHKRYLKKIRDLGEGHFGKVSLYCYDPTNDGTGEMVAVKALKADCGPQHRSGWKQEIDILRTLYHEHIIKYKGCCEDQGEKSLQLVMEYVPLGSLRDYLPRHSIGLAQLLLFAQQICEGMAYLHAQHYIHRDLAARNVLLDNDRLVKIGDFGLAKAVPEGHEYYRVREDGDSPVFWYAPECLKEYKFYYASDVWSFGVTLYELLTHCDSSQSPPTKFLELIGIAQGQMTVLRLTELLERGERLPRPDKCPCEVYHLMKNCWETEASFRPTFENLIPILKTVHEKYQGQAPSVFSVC
# Chain of Tyrosine-protein kinase JAK2 (O60674 whole entry): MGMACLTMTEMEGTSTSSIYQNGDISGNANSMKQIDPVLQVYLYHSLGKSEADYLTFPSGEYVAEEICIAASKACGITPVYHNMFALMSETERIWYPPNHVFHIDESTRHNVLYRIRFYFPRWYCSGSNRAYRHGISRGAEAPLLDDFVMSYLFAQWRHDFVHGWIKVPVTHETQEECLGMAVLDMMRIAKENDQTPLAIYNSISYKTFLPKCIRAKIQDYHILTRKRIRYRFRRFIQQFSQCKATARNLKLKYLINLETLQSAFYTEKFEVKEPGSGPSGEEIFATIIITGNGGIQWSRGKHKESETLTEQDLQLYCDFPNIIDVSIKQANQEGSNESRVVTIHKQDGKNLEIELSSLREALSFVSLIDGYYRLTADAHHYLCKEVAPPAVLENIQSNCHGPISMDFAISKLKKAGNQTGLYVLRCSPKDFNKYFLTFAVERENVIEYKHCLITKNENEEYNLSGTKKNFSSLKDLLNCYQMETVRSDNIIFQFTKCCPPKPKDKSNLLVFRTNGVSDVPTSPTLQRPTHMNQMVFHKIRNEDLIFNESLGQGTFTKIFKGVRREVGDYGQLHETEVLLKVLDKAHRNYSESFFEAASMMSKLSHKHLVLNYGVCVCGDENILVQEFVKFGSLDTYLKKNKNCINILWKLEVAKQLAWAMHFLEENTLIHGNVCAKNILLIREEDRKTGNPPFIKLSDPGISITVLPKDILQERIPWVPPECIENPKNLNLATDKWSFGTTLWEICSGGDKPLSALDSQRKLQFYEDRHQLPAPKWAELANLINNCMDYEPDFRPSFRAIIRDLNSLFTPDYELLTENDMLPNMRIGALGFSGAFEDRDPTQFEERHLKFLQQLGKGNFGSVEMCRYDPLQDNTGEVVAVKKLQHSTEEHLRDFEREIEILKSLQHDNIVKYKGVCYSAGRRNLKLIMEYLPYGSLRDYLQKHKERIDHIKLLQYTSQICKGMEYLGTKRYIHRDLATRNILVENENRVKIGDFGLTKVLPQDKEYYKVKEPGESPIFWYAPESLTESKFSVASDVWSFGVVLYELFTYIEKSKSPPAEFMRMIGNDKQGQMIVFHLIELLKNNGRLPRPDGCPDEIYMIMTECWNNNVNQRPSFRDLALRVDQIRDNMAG
SMILES,IC50 (U-937) [nM],IC50 (BaF3 [1]) [nM],IC50 (BaF3 [2]) [nM],IC50 [3] [nM],IC50 (BaF3 [4]) [nM],IC50 (BaF3 [5]) [nM],also measured
C=CC(=O)Nc1cc(Nc2ncc(Cl)c(O[C@@H]3CO[C@H]4[C@@H]3OC[C@H]4OC(C)C)n2)ccc1N(C)CCN(C)C,44,179,205,1.3,336,166,
C=CC(=O)Nc1cc(Nc2ncc(Cl)c(O[C@@H]3CO[C@H]4[C@@H]3OC[C@H]4F)n2)ccc1N(C)CCN(C)C,50.3,46.4,519,1.3,461,416,
C=CC(=O)Nc1cc(Nc2ncc(Cl)c(O[C@@H]3CO[C@H]4[C@@H]3OCC4(F)F)n2)ccc1N(C)CCN(C)C,33.8,56.4,214,1.2,180,188,
C=CC(=O)N1C[C@H](Nc2ncnc3[nH]ccc23)CC[C@@H]1C [RITLECITINIB],19.5,28.1,> 10000,,> 10000,> 10000,
C=CC(=O)Nc1cc(Nc2ncc(Cl)c(O[C@@H]3CO[C@H]4[C@@H]3OC[C@H]4O)n2)ccc1N(C)CCN(C)C,15.2,24.9,102,,133,149,Cmax [6]: 440 ng/mL; Cmax [7]: 79.1 ng/mL; half-life [8]: 1.02 h; half-life at […] [9]: 2 h; AUC(0-inf) [10]: 105 ng·h/mL; AUC(0-inf) [11]: 280 ng·h/mL; half-life [12]: 0.8 h; CL [13]: 299.15%; bioavailability [14]: 12.4%
C=CC(=O)Nc1cc(Nc2ncc(Cl)c(O[C@@H]3CO[C@H]4[C@@H]3OC[C@H]4O)n2)ccc1N1C[C@H]2C[C@@H]1CN2C,,,,1.5,,,
C=CC(=O)Nc1cc(Nc2ncc(Cl)c(O[C@@H]3CO[C@H]4[C@@H]3OC[C@H]4OCC)n2)ccc1N(C)CCN(C)C,30,108,161,,313,137,
C#CCCN(C)CCN(C)c1ccc(Nc2ncc(Cl)c(O[C@@H]3CO[C@H]4[C@@H]3OC[C@H]4OC)n2)cc1NC(=O)C=C,,,,1.7,,,
C=CC(=O)Nc1cccc(Nc2ncc(Cl)c(O[C@@H]3CO[C@H]4[C@@H]3OC[C@H]4O)n2)c1,,,,1.2,,,IC50 [15]: 94 nM; IC50 [16]: 1400 nM; IC50 [17]: 556 nM

# Continued, in another order:
IC50 (U-937) [nM],IC50 (BaF3 [1]) [nM],IC50 (BaF3 [2]) [nM],IC50 [3] [nM],IC50 (BaF3 [4]) [nM],IC50 (BaF3 [5]) [nM],SMILES,also measured
40.7,88.6,476,,435,418,C=CC(=O)Nc1cc(Nc2ncc(Cl)c(O[C@@H]3CO[C@H]4[C@@H]3OC[C@@H]4F)n2)ccc1N(C)CCN(C)C,
,,,1.6,,,C=CC(=O)Nc1cc(Nc2ncc(Cl)c(O[C@@H]3CO[C@H]4[C@@H]3OC[C@H]4O)n2)ccc1N1CCOCC1,
,1650,1380,,> 10000,> 10000,CN1CCN(C2CCN(c3ccc(Nc4ncc(Cl)c(O[C@@H]5CO[C@H]6[C@@H]5OC[C@H]6O)n4)cc3Cl)CC2)CC1,
,,,1.9,,,C=CC(=O)Nc1cc(Nc2ncc(Cl)c(O[C@@H]3CO[C@H]4[C@@H]3OC[C@H]4O)n2)ccc1N1CCC(N(C)C)C1 (stereo partly drawn),
35.9,20.1,40.4,1.8,122,46.3,C=CC(=O)Nc1cc(Nc2ncc(Cl)c(O[C@@H]3CO[C@H]4[C@@H]3OC[C@H]4O)n2)ccc1N1CCC(N2CCN(C)CC2)CC1,IC50 [15]: 369 nM; IC50 [16]: 1030 nM; IC50 [17]: 1540 nM
